Source: patent US6054318A, “Expression of the glucose oxidase gene in transgenic organisms” (Commonwealth Scientific And Industrial Research Organization, priority 1994, dated 2000)

Experiments:
[1] = system: Talaromyces flavus glucose oxidase, wild type; settings: T. flavus glucose oxidase; read-out: Km for β-D-glucose; cited from earlier work
[2] = molecular target: Aspergillus niger glucose oxidase, wild type (Aspergillus niger, UniProt P13006); settings: A. niger glucose oxidase; read-out: Km for β-D-glucose; cited from earlier work
[3] = system: Verticillium dahliae microsclerotia and mycelia; settings: added to growth media; cited from earlier work
[4] = system: Rhyzoctonia solani; test: In vitro growth of R. solani in PD broth, microtitre plate reader; assay type: cell-based; settings: PD broth plus gluconic acid
Description: Glucose oxidase was examined in vitro for its ability to inhibit the growth of an Australian isolate of R. solani. Different concentrations of A. niger glucose oxidase suspended in potato dextrose broth and different amounts of filtrate from T. flavus 32908 and GOH-1 were inoculated with R. solani and fungal growth was monitored using a microtitre plate reader. Duplicates were performed for each experiment and the experiment was repeated twice. […] Growth inhibition curves for R. solani were calculated 26 hours after the start of fungal growth (FIG. 5). […] These values are approximately twice the glucose oxidase IC50 value determined for V. dahliae (2.2 μg/ml).

Aspergillus niger glucose oxidase, wild type, sequence (P13006 17-605): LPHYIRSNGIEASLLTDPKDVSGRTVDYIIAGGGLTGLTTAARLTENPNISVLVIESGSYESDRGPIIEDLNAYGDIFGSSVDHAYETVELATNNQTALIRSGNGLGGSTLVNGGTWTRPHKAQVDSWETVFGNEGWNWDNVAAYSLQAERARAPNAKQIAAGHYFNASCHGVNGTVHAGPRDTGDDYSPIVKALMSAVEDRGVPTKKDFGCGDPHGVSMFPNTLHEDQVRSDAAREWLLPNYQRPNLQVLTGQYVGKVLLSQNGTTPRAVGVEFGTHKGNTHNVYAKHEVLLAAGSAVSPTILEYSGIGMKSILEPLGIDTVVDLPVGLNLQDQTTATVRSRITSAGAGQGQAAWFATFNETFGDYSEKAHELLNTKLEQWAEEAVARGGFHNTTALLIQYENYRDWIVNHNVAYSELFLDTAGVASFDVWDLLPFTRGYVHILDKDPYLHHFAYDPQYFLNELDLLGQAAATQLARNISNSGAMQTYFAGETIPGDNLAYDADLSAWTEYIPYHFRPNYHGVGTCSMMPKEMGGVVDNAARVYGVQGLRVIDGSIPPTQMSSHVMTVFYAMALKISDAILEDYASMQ

SMILES	Km [1] [mM]	Km [2] [mM]	inhibition of microsclerotial germination and mycelial growth [3]	growth profile of R. solani compared with PD broth alone [4]
OC[C@H]1O[C@@H](O)[C@H](O)[C@@H](O)[C@@H]1O [β-D-glucose]	10.9	27		
O=C(O)[C@H](O)[C@@H](O)[C@H](O)[C@H](O)CO [gluconic acid]			did not cause inhibition	very similar
OO [hydrogen peroxide]			inhibited microsclerotial germination and mycelial growth	
O=C[C@H](O)[C@@H](O)[C@H](O)[C@H](O)CO [glucose]			did not cause inhibition	
